Laboratory results as given in publication PMC5635026, “Homo-PROTACs: bivalent small-molecule dimerizers of the VHL E3 ubiquitin ligase to induce self-degradation” (Nature Communications, 2017).

Tests used:
V19CB = biological target: T1, V19CB (Homo sapiens, UniProt P40337); experiment: Size-exclusion chromatography (SEC) of complex formation with V19CB; type: binding; conditions: VCB 50 µM, compound 30 µM
T1 construct: made in house
Procedure: (§1) Protein expression and purification. Human proteins VHL (UniProt accession number: P40337), ElonginC (Q15369), and ElonginB (Q15370) were used for all protein expression. The short-isoform-containing VCB complex (V19CB) was expressed, purified and stored as described previously. For expression of the long-isoform-containing VCB complex (V30CB), N-terminally His6-tagged VHL (1–213), ElonginC (17–112) and ElonginB (1–104) were co-expressed in Escherichia coli BL21(DE3) at 20 °C for 18 h using 0.5 mM isopropyl β-D-1-thiogalactopyranoside (IPTG). E. coli cells were resuspended in binding buffer (50 mM HEPES, pH 8.0, 500 mM NaCl, 10 mM imidazole and 5 mM β-mercaptoethanol), lysed using a pressure cell homogenizer (Stansted Fluid Power), and lysate clarified by centrifugation. The supernatant was loaded onto a HisTrap FF affinity column (GE Healthcare) equilibrated with binding buffer, and bound protein was eluted using an imidazole gradient. The His6 tag was removed using thrombin protease (Sigma), and the untagged complex was dialyzed into binding buffer. V30CB was then loaded onto the HisTrap FF column a second time, allowing impurities to bind as the complex eluted without binding. The flow-through was dialyzed using a low-salt buffer (20 mM HEPES, pH 8.0, 25 mM NaCl and 1 mM DTT) and then loaded onto a Resource Q anion exchange column (GE Healthcare); bound protein was eluted across a linear NaCl gradient. V30CB was then additionally purified by size-exclusion chromatography using a Superdex-75 16/600 column (GE Healthcare) equilibrated with 20 mM HEPES, pH 7.5, 100 mM sodium chloride and 1 mM TCEP. All chromatography purification steps were performed using Äkta FPLC purification systems (GE Healthcare).
Size-exclusion chromatography (SEC). SEC experiments were carried out in a ÄKTA pure system (GE Healthcare) at room temperature. The oligomeric state of the VCB complex in solution was analyzed by gel filtration in a buffer containing 20 mM Bis-Tris (pH 7), 150 mM NaCl and 1 mM 1,4-dithiothreitol (DTT) using a Superdex 200 Increase 10/300 GL column (GE Healthcare) calibrated with globular proteins of known molecular weight (GE Healthcare, 28-4038-41/42). […] Sample volume for each injection was 200 µl, and the flow rate was 0.5 ml min^−1. Peak elution was monitored using ultraviolet absorbance at 280 nm.

pVHL30 [1] = biological target: T2, pVHL30 (Homo sapiens, UniProt P40337); experiment: Immunoblot of pVHL30 protein level in HeLa cells after compound treatment; type: cell-based; design: endogenous in cells; host or cells: HeLa; conditions: 1 µM, 10 h; for remaining activity at 1 µM: DMSO = 100, Fig. 4a, read-out: pVHL30 band quantification normalized to 0.1% DMSO
Procedure: (§2) Cell culture. Human cell lines HeLa, U2OS and HEK 293, purchased from ATCC, were propagated in DMEM supplemented with 10% fetal bovine serum (FBS), L- glutamine, 100 μg ml^−1 of penicillin/streptomycin at 37 °C and 5% CO2. Cells were maintained for no more than 30 passages. All cell lines were routinely tested for mycoplasma contamination using MycoAlert kit from Lonza. For compound treatment experiments, cells were transferred in six-well plates with either 3 × 10^5 or 5 × 10^5 cells per well in 2 ml of media. At 80% confluence, cells were treated with compounds at the desired concentration, reaching final DMSO concentration of 0.1% v/v. Cells were incubated at 37 °C and 5% CO2 for the desired time before harvesting.
(§3) Immunoblotting. Cells were lysed in lysis buffer (20 mM Tris pH 8, 150 mM NaCl, 1% Triton × 100) and a protease inhibitor cocktail (Roche) per 10 ml buffer. For protein extracts, the dishes were placed on ice. The media was aspirated and the tissue layer washed twice with ice-cold phosphate buffer saline (PBS). Lysis buffer (120 μl) was added and the cells detached from the surface with a cell scraper. After removal of the insoluble fraction by centrifugation, the protein concentration of the supernatant was determined by Pierce™ Coomassie (Bradford) Protein Assay Kit. Protein extracts were fractionated by SDS-PAGE on 4–12% Tris-Acetate NuPage® Novex® (Life Technologies) polyacrylamide gels and transferred to a nitrocellulose membrane using wet transfer. The membrane was then blocked with 5 % w/v Bovine serum albumin (BSA) in Tris-buffered saline (TBS) with 0.1% w/v Tween-20. For detecting proteins the following primary antibodies in the given concentrations were used: anti-β-Actin (Cell Signaling Technology, 4970S, 13E5) 1:2000, anti-VHL (Cell Signaling Technology, #68547) 1:1000, anti-Hif-1α (BD Biosciences, 610959, clone 54) 1:1,000, anti-hydroxy-HIF-1α (Hyp564) (Cell Signaling Techonology; #3434) 1:1,000, anti-PHD2 (Bethyl Laboratories; A300-322A) 1:1,000, anti-PHD3 (Bethyl Laboratories; A300-327A) 1:1000, anti-CRBN (Proteintech; 11435-1-AP) 1:1,000. Following incubation with a horseradish peroxidase-conjugated secondary antibody (Cell Signaling Technology), the signal was developed using enhanced chemiluminescence (ECL) Western Blotting Detection Kit (Amersham) on Amersham Hyperfilm ECL film (Amersham). Band quantification was performed using ImageJ software and reported as relative amount as ratio of the each protein band relative to the lane’s loading control. The values obtained were then normalized to 0.1% DMSO vehicle control. See Supplementary Fig. 12 for full-scanned images of western-blots shown in the main text figures.
Target sequence in this assay (P40337 whole entry): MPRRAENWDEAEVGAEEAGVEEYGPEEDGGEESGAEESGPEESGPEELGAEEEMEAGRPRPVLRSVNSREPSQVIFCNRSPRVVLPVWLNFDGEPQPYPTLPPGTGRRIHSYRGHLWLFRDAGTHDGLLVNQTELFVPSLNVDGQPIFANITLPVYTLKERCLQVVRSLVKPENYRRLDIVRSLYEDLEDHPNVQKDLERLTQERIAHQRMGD

pVHL19 [2] = biological target: T3, pVHL19 (Homo sapiens, UniProt P40337); experiment: Isothermal titration calorimetry (ITC) against VCB complex with short VHL isoform (V19CB); type: binding; design: made in house; conditions: ITC
Procedure: as §1
(§4) Isothermal titration calorimetry (ITC). Titrations were performed on an ITC200 micro-calorimeter (GE Healthcare). […] The final DMSO concentration was 0.15% v/v. VCB protein experiments were carried out in a buffer containing 20 mM Bis-tris propane, 150 mM NaCl, 1 mM TCEP, 0.15% v/v DMSO, pH 7.4. The titrations consisted of 19 injections of 2 µL compounds solution (150 µM, in the syringe) at a rate of 0.5 µl s^−1 at 120 s time intervals into the VCB protein solution (20 µM, in the cell). An initial injection of compound solution (0.4 µL) was made and discarded during data analysis. All experiments were performed at 25 °C, whilst stirring the syringe at 600 rpm. The data were fitted to a single binding site model to obtain the stoichiometry n, the dissociation constant K d and the enthalpy of binding ΔH using the Microcal LLC ITC200 Origin software provided by the manufacturer.
Target sequence in this assay (P40337 54-213): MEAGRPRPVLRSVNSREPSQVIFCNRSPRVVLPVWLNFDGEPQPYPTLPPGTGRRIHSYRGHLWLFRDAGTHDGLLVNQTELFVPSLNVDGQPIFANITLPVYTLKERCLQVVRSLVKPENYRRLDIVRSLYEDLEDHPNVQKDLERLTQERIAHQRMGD
Target sequence in this assay (Q15369 17-112 partner limits assumed): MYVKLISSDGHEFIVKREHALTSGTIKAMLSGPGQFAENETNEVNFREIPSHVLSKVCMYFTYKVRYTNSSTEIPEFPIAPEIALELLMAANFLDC
Target sequence in this assay (Q15370 1-104 partner limits assumed): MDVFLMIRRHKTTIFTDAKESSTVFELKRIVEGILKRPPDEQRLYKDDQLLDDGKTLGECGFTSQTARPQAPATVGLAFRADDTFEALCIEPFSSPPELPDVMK

pVHL19 [3] = biological target: T3, pVHL19; experiment: Immunoblot of pVHL19 protein level in HeLa cells after compound treatment; type: cell-based; design: endogenous in cells; host or cells: HeLa; conditions: 1 µM, 10 h, DMSO = 100, Fig. 4a, read-out: pVHL19 band quantification normalized to 0.1% DMSO
Procedure: as §2, §3
Target sequence in this assay (P40337 54-213): as the sequence (P40337 54-213) above
Target sequence in this assay (Q15369 whole entry partner, canonical isoform): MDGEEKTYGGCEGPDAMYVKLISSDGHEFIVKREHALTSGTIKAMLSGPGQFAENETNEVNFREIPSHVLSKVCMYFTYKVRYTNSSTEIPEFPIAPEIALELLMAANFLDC
Target sequence in this assay (Q15370 whole entry partner, canonical isoform): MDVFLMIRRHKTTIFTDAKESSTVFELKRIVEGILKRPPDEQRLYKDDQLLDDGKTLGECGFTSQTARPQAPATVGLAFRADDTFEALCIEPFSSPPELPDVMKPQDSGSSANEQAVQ

pVHL30 [4] = biological target: T2, pVHL30; experiment: Isothermal titration calorimetry (ITC) against VCB complex with long VHL isoform (V30CB); type: binding; design: N-terminally His6-tagged VHL (1–213), ElonginC (17–112) and ElonginB (1–104) were co-expressed; His6 (N, cleaved yes); made in house; host or cells: Escherichia coli BL21(DE3); conditions: 25 °C
Procedure: as §1, §4
Target sequence in this assay (P40337 whole entry): as the sequence (P40337 whole entry) above
Target sequence in this assay (Q15369 17-112 partner limits assumed): as the sequence (Q15369 17-112 partner limits assumed) above
Target sequence in this assay (Q15370 1-104 partner limits assumed): as the sequence (Q15370 1-104 partner limits assumed) above

T1 sequence (P40337 54-213): as the sequence (P40337 54-213) above
T1 sequence (Q15369 17-112 partner limits assumed): as the sequence (Q15369 17-112 partner limits assumed) above
T1 sequence (Q15370 1-104 partner limits assumed): as the sequence (Q15370 1-104 partner limits assumed) above

shift of VCB peak / ternary complex formation in SEC (V19CB) | depletion of target protein (pVHL30 / VHL) (pVHL30 [1]) | remaining activity at 1 µM (pVHL30 [1]) | binding to VCB by ITC (pVHL19 [2]; qualitative) | remaining activity at 1 µM (pVHL19 [3]) | elution volume of small peak in SEC (V19CB) | ΔG (pVHL19 [2]; 25 °C, pVHL19) | ΔH (pVHL19 [2]; 25 °C, pVHL19) | −TΔS (pVHL19 [2]; 25 °C, pVHL19) | Kd (pVHL19 [2]; 25 °C, pVHL19 (V19CB)) | n (pVHL19 [2]; 25 °C, stoichiometry of binding, pVHL19 (V19CB)) | ΔG (pVHL30 [4]; pVHL30) | ΔH (pVHL30 [4]; pVHL30) | −TΔS (pVHL30 [4]; pVHL30) | Kd (pVHL30 [4]; pVHL30 (V30CB)) | n (pVHL30 [4]; stoichiometry of binding, pVHL30 (V30CB)) | Structure (SMILES)
No shift | unable to induce degradation of VHL | 108% | binding was not detected | 104% |  |  |  |  |  |  |  |  |  |  |  | Cc1ncsc1-c1ccc(CNC(=O)[C@@H]2C[C@H](O)CN2C(=O)[C@@H](NC(=O)COCCOCCOCCOCCOCCOCC(=O)N[C@H](C(=O)N2C[C@@H](O)C[C@H]2C(=O)NCc2ccc(-c3scnc3C)cc2)C(C)(C)C)C(C)(C)C)cc1 [CMP98, N ^1 ,N ^20-bis((S)-1-((2S,4S)-4-hydroxy-2-((4-(4-methylthiazol-5-yl)benzyl)carbamoyl)pyrrolidin-1-yl)-3,3-dimethyl-1-oxobutan-2-yl)-3,6,9,12,15,18-hexaoxaicosanediamide]
No shift | unable to induce degradation of VHL | 62% |  | 104% | 13.5 mL | –9.33 ± 0.06 kcal mol^−1 | –6.23 ± 0.05 kcal mol^−1 | –3.1 ± 0.7 kcal mol^−1 | 0.146 ± 0.002 µM | 0.964 ± 0.005 | –9.51 ± 0.05 kcal mol^−1 | –5.19 ± 0.03 kcal mol^−1 | –4.3 ± 0.1 kcal mol^−1 | 0.106 ± 0.01 µM | 1.050 ± 0.004 | Cc1ncsc1-c1ccc(CNC(=O)[C@H]2C[C@@H](O)CN2C(=O)[C@H](NC(=O)COCCOCCOCCOCCOCC(=O)N[C@H](C(=O)N2C[C@H](O)C[C@H]2C(=O)NCc2ccc(-c3scnc3C)cc2)C(C)(C)C)C(C)(C)C)cc1 [CMP99, N ^1-((R)-1-((2R,4R)-4-hydroxy-2-((4-(4-methylthiazol-5-yl)benzyl)carbamoyl)pyrrolidin-1-yl)-3,3-dimethyl-1-oxobutan-2-yl)-N ^17-((S)-1-((2S,4R)-4-hydroxy-2-((4-(4-methylthiazol-5-yl)benzyl)carbamoyl)pyrrolidin-1-yl)-3,3-dimethyl-1-oxobutan-2-yl)-3,6,9,12,15-pentaoxaheptadecanediamide]
